Measured values taken from patent US20250313532A1, “ALDH2 INHIBITORS AND METHODS OF USE THEREOF” (UNIVERSITY OF MARYLAND, BALTIMORE, priority 2022, published 2025).
Read-outs that look alike come from different tables or passages of the source.

Assays:
OATP1B1 = target: T1, OATP1B1 (Homo sapiens, UniProt Q9Y6L6); assay: OATP1B1-mediated uptake, OATP1B1-transfected vs wild-type HEK293 cells; type: in vitro ADME
T1 construct: expressed in transfected cells; host or cells: HEK293
T1 sequence (Q9Y6L6 1-691): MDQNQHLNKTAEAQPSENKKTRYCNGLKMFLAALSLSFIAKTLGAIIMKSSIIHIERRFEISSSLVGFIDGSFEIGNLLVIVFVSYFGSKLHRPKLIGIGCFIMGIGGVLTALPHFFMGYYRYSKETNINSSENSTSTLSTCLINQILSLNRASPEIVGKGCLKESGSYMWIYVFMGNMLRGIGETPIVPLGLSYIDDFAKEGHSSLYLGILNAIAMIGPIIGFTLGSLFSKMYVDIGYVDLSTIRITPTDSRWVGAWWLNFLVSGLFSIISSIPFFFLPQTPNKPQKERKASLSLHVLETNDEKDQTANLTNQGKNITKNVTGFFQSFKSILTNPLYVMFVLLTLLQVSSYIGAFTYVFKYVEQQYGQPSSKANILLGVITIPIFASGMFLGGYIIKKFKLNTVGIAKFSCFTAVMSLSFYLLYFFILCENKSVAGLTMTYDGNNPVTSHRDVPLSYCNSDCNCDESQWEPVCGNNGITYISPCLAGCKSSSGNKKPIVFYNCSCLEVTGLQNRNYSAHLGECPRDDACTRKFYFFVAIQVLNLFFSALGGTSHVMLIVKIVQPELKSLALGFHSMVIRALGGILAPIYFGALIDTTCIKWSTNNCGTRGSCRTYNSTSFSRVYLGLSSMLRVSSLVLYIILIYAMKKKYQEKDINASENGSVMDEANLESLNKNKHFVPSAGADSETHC
Protocol: The uptake of inhibitor YA7068 by the liver-specific transporter OATP1B1 has been evaluated using a protocol similar to the one in a recent study on OCT transporters by Obianom et al. After incubating OATP1B1-transfected HEK293 cells with the compound, the intracellular concentrations of YA7068 was >2.5-fold higher than that after incubating the wild-type HEK293 cells with the compound (FIG. 3D). In sum, compound YA7068 is developed as a novel liver-targeting potent inhibitor of ALDH2.
The OATP1-mediated uptake of synthesized compounds is assessed by an LC-MS-based method employing the OATP1B1- or OATP1B3-expressing HEK293 cells. Briefly, cells are washed twice with uptake buffer to remove floating cells. Compounds diluted in the uptake buffer are replaced in the wells and incubated for 10 min. For screening of compounds at a single concentration and one-time point, the cells are incubated with 100 μM of testing compounds. In each experiment, pitavastatin is used as a positive control. The incubation is stopped by removing the solution and adding […] of ice-cold uptake buffer. The cells are washed twice with the buffer. After washing, 200 μL of lysing solution (1:1 MeOH/H2O) containing internal standard is added. […] Aliquots of the supernatant are transferred to new tubes and drug concentration is quantified by LC-MS/MS. […]

[1] = system: primary human hepatocytes; assay: Cytotoxicity / cell viability in primary human hepatocytes (CCK-8); type: cell-based; settings: concentration up to 200 uM, 24 h
Protocol: Initial cell viability assays are performed on the YA7068 and new analogs on primary human hepatocytes (see letter from Prof. Hongbing Wang) using the commercially available CellTiter-Glo® 2.0 (Promega) as described by the manufacturer. […] These studies allow us to assess if the compounds are non-toxic for human liver cells.
Cytotoxicity studies of YA7068 to primary human hepatocytes were performed.
Human primary hepatocytes were maintained in DMEM medium with 10% fetal bovine serum (FBS) and 1% PS (penicillin/streptomycin). The cells were incubated in 37° C. incubator with 5% CO2. The number of viable cells was determined using the CCK-8 assay. Briefly, cells were seeded at a density of 5000 cells/well in 96-well plates, a nd were treated in triplicate with different concentrations of individual compounds (0, 0.1, 0.5, 1, 5, 10, 25, 50, 100, and 200 PM) for 24 h. Then, 10 μL of CCK-8 working solution was added to each well and incubated for appropriate times (0.5-4 h) before subjecting to a microplate reader for OD detection at 450 nm.

ALDH2 = target: T2, ALDH2 (Homo sapiens, UniProt P05091); assay: Fluorescence-based ALDH2 enzymatic inhibition assay (NADH fluorescence); type: biochemical; settings: for IC50: ALDH2 50 nM, formaldehyde 300 μM, NAD+ 1.2 mM, pH 7.4, 25° C.; for fold more potent than hit CB-01 (ALDH2 IC50): relative to parent screening hit CB-01
T2 construct: purchased Abcam 87415
T2 sequence (P05091 18-517): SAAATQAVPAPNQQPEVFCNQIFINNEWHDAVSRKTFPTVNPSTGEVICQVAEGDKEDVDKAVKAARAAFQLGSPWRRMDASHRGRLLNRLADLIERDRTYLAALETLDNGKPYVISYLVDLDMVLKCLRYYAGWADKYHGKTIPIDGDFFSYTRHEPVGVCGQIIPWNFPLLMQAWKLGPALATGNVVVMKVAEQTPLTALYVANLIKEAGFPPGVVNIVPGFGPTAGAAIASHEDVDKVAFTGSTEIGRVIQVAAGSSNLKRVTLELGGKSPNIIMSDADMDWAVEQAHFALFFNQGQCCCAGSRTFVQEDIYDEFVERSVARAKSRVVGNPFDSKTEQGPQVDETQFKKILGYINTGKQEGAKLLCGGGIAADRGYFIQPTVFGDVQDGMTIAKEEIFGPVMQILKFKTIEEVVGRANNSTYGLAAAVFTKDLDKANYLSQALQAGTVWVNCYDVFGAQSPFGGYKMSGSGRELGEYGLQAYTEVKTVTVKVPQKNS
Protocol: Fluorescence-based ALDH2 assay was used to test the potencies of new compounds.
IC50 values of synthesized compounds is tested by an ALDH2 enzymatic assay obtained by modifying a published protocol, for example by Yang et al. This assay measures an inhibitor-caused fluorescence decrease of the NADH generated from the ALDH2 catalytic reaction. Inhibitor binding causes a decrease in the production of NADH that affects the ability of the enzyme to turnover its substrate aldehyde and decreased the production of carboxylic acid. The assay components include: ALDH2 (50 nM) (Abcam #87415), substrate formaldehyde (300 μM), NAD^+ (1.2 mM), and testing compound in phosphate buffer (50 mM, pH 7.4) with 0.01% Tween 20 at 25° C. The assay is performed in black 384-well plates (40 L total volume; Costar). […] The negative control contains the enzyme, substrate solution in phosphate buffer without the addition of the substrate formaldehyde. Measurements are performed 10 min after adding the testing compound by excitation of NAD^+ at 340 nm, which leads to fluorescence emission at 450 nm. The IC50 values of testing compounds is determined from experiments performed in a concentration-dependent manner of testing compounds by fitting the data to a sigmoidal dose-response equation in GraphPad Prism. All experiments are performed in triplicate.
An HTS ALDH2 enzymatic assay is established and can be used to measure the inhibitory potency of compounds. […] The assay was used for temperature, pH value, and concentration of ALDH2 in the 384-well format; several independent test runs were performed to assess assay parameters.
To determine the performance of the established ALDH2 activity assay under HTS conditions, a pilot screen of 980 compounds was performed. Compounds were tested in triplicate at concentrations ranging from 10 nM to 50 μM (0.1% DMSO). Raw assay data were analyzed using DataWarrior software. The IC50 value of each compound was calculated. “High Control” represents wells from the same plate containing ALDH2 (50 nM), formaldehyde (300 μM), and NAD^+ (1.2 mM) in phosphate buffer (50 mM, pH 7.4) with 0.01% Tween 20 at 25° C. and DMSO (0.1%) while “Low controls” correspond to the wells from the same plate containing ALDH2 (50 nM) treated with and NAD^+ (1.2 mM) in phosphate buffer (50 mM, pH 7.4) with 0.01% Tween 20 at 25° C. and DMSO (0.1%). […] Two values were subsequently calculated: 1) the average IC50 values of all the compounds tested in the screen, and 2) three times the standard deviation. The sum of these two values was used as the cutoff parameter.

Structure (SMILES) | intracellular concentration, OATP1B1-transfected HEK293 cells vs wild-type HEK293 cells (OATP1B1; after incubating cells with the compound) [fold] | substrate for hepatocyte-specific OATP1B1 (OATP1B1; result in words) | cytotoxicity for primary human hepatocytes [1] | IC50 (ALDH2; read-out: IC50, inhibition of the enzymatic activity of ALDH2) [nM] | fold more potent than hit CB-01 (ALDH2 IC50) (ALDH2) [fold] | IC50 (ALDH2; read-out: IC50, ALDH2 enzymatic assay) [nM]
CS(=O)(=O)Nc1ccc(-c2cc3ccc(OCc4cccc(C(=O)O)c4)cc3oc2=O)cc1 [YA7068, 3-(((3-(4-(Methylsulfonamido)phenyl)-2-oxo-2H-chromen-7-yl)oxy)methyl)benzoic acid] | > 2.5 | functions as a substrate | did not exhibit any cytotoxicity | 62 | > 170 | –
CS(=O)(=O)Nc1ccc(-c2cn3cc(C(=O)O)sc3n2)cc1 [YA7241, 6-(4-(Methylsulfonamido)phenyl)imidazo[2,1-b]thiazole-2-carboxylic acid] | – | – | – | – | 5.8 | 1900
